# From PubChem BioAssay (NCI)
#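 Cultured in 96-well plates, cells were exposed to test compound for 48 hours across five concentrations. GI50 marks 50% less growth. TGI marks complete inhibition of growth.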 *1 amine or outer side, *2 acyl side, *3 side chain or, on linkers, in order; H or OH if unused. Where a SMILES comes first, the peptide text is derived from it. [ ]: non-standard residue; d: D form. The star is where a group is joined. ξ: configuration not given here. X15 = CCN(CC)c1ccc2cc(N*)c(=O)oc2c1; dIva = CC[C@@](C)(N)C(=O)O; X14 = O=C(OCCN[*:1])[*:2]; Aib = CC(C)(N)C(=O)O; ξP = O=C(O)C1CCCN1; βAla = NCCC(=O)O
# Columns and labels:
# Assay in all cases: inhibition of tumour cell growth, NCI panel, 48 h
# [1] = system: NCI-H522 lung
# [2] = system: COLO 205 colon
# [3] = system: CCRF-CEM leukemia
# [4] = system: HOP-62 NSCLC
# [5] = system: DU-145 prostate
# [6] = system: NCI-H460 lung
# [7] = system: SK-MEL-28 melanoma
# [8] = system: M14 melanoma
# [9] = system: MDA-MB-231 breast
# [10] = system: HS 578T breast
# [11] = system: UACC-62 melanoma
# [12] = system: CAKI-1 renal
# [13] = system: SK-MEL-5 melanoma
# [14] = system: A498 renal
# [15] = system: A549 NSCLC
# [16] = system: ACHN renal
# [17] = system: SNB-75 CNS
# [18] = system: OVCAR-3 ovarian
# [19] = system: SR leukemia
# [20] = system: MDA-MB-468 breast
# [21] = system: SF-268 CNS
# [22] = system: OVCAR-5 ovarian
# [23] = system: HOP-92 NSCLC
# [24] = system: EKVX NSCLC
# [25] = system: IGROV1 ovarian
# [26] = system: HCC-2998 colon
# [27] = system: PC-3 prostate
# [28] = system: MCF7 breast
# [29] = system: UACC-257 melanoma
# [30] = system: LOX IMVI melanoma
# [31] = system: HCT-15 colon
# [32] = system: BT-549 breast
# [33] = system: MDA-MB-435
# [34] = system: TK-10 renal
# [35] = system: SNB-19 CNS
# [36] = system: U251 CNS
# [37] = system: RPMI-8226 leukemia
# [38] = system: HT29 colon
# [39] = system: NCI-H226 lung
# [40] = system: RXF 393 renal
# [41] = system: HCT-116 colon
# [42] = system: NCI-H23 lung
# [43] = system: KM12 colon
# [44] = system: SK-MEL-2 melanoma
# [45] = system: 786-0 renal
# [46] = system: MOLT-4 leukemia
# [47] = system: SF-295 CNS
# [48] = system: SK-OV-3 ovarian
# [49] = system: K-562 leukemia
# [50] = system: OVCAR-4 ovarian
# [51] = system: MALME-3M melanoma
# [52] = system: OVCAR-8 ovarian
# [53] = system: SF-539 CNS
# [54] = system: HL-60(TB) leukemia
# [55] = system: T-47D breast
# [56] = system: SN12C renal
# [57] = system: UO-31 renal
# [58] = system: SW-620 colon
compound,measurement,setting,value
CN(C)c1ccnc(NCCCSC(c2ccccc2)(c2ccccc2)c2ccccc2)c1,GI50,[1],12 µM
same,TGI,[1],26.6 µM
same,GI50,[2],1.87 µM
same,TGI,[2],3.44 µM
same,GI50,[3],3.94 µM
same,TGI,[3],17 µM
same,GI50,[4],14.5 µM
same,TGI,[4],29.2 µM
same,GI50,[5],11 µM
same,TGI,[5],23 µM
same,GI50,[6],4.85 µM
same,TGI,[6],17.1 µM
same,GI50,[7],1.75 µM
same,TGI,[7],3.74 µM
same,GI50,[8],3.81 µM
same,TGI,[8],13.3 µM
same,GI50,[9],5.71 µM
same,TGI,[9],20.2 µM
same,GI50,[10],11.3 µM
same,TGI,[10],35.3 µM
same,GI50,[11],7.5 µM
same,TGI,[11],21.6 µM
same,GI50,[12],7.48 µM
same,TGI,[12],21 µM
same,GI50,[13],3.93 µM
same,TGI,[13],14.2 µM
same,GI50,[14],14.9 µM
same,TGI,[14],29 µM
same,GI50,[15],7.35 µM
same,TGI,[15],21.6 µM
same,GI50,[16],8.67 µM
same,TGI,[16],24.8 µM
same,GI50,[17],11.9 µM
same,TGI,[17],24.3 µM
same,GI50,[18],7.26 µM
same,TGI,[18],20.2 µM
same,GI50,[19],2.76 µM
same,TGI,[19],7.84 µM
same,GI50,[20],2.01 µM
same,TGI,[20],5.63 µM
same,GI50,[21],14.5 µM
same,TGI,[21],30.5 µM
same,GI50,[22],11.9 µM
same,TGI,[22],26 µM
same,GI50,[23],3.3 µM
same,TGI,[23],15.8 µM
same,GI50,[24],14.2 µM
same,TGI,[24],29.6 µM
same,GI50,[25],11.4 µM
same,TGI,[25],27.9 µM
same,GI50,[26],2.55 µM
same,TGI,[26],7.13 µM
same,GI50,[27],4.41 µM
same,TGI,[27],16.3 µM
same,GI50,[28],3.96 µM
same,TGI,[28],16.6 µM
same,GI50,[29],3.07 µM
same,TGI,[29],11.6 µM
same,GI50,[30],2.96 µM
same,TGI,[30],10.6 µM
same,GI50,[31],5.19 µM
same,TGI,[31],19.6 µM
same,GI50,[32],11.5 µM
same,TGI,[32],25 µM
same,GI50,[33],8.6 µM
same,TGI,[33],20.9 µM
same,GI50,[34],12.4 µM
same,TGI,[34],25.4 µM
same,GI50,[35],15.9 µM
same,TGI,[35],31.5 µM
same,GI50,[36],7.78 µM
same,TGI,[36],21.7 µM
same,GI50,[37],3.43 µM
same,TGI,[37],12.3 µM
same,GI50,[38],3 µM
same,TGI,[38],10.7 µM
same,GI50,[39],10.9 µM
same,TGI,[39],28.1 µM
same,GI50,[40],2.58 µM
same,TGI,[40],9.7 µM
same,GI50,[41],3.97 µM
same,TGI,[41],17 µM
same,GI50,[42],12.9 µM
same,TGI,[42],26.3 µM
same,GI50,[43],5.57 µM
same,TGI,[43],17.8 µM
same,GI50,[44],16.6 µM
same,TGI,[44],30.7 µM
same,GI50,[45],9.86 µM
same,TGI,[45],25.8 µM
same,GI50,[46],3.62 µM
same,TGI,[46],15 µM
same,GI50,[47],11.4 µM
same,TGI,[47],26.2 µM
same,GI50,[48],13.5 µM
same,TGI,[48],26.8 µM
same,GI50,[49],2.88 µM
same,TGI,[49],10.4 µM
same,GI50,[50],11.8 µM
same,TGI,[50],29.8 µM
same,GI50,[51],1.55 µM
same,TGI,[51],3.19 µM
same,GI50,[52],10.3 µM
same,TGI,[52],28 µM
same,GI50,[53],6.82 µM
same,TGI,[53],21.9 µM
same,GI50,[54],3.06 µM
same,TGI,[54],10.5 µM
same,GI50,[55],11.4 µM
same,TGI,[55],29 µM
same,GI50,[56],11.1 µM
same,TGI,[56],25.8 µM
same,GI50,[57],5.4 µM
same,TGI,[57],21.1 µM
same,GI50,[58],4.42 µM
same,TGI,[58],16.1 µM
O=C(CN1CCN(c2ccccc2)CC1)N1CCN(c2nnc(-c3ccc(Cl)cc3)c(-c3ccc(Cl)cc3)n2)CC1,GI50,[20],18.9 µM
same,TGI,[20],95.3 µM
O=C(COc1cccc(/C=C2\COc3ccc(Cl)cc3C2=O)c1)c1ccc(Cl)cc1,GI50,[20],2.82 µM
same,TGI,[20],9.26 µM
CC1(C)CC[C@]23CC[C@]4(C)[C@H](CC[C@@H]5[C@@]6(C)CC[C@H](NCO)C(C)(C)[C@@H]6CC[C@]54C)[C@H]2[C@H]1OC3,GI50,[20],1.85 µM
same,TGI,[20],3.71 µM
CC(C)(C#N)c1cc(C(=O)Nc2cc(Nc3ncccc3-c3ncnc4nc[nH]c34)ccc2F)cc(C(F)(F)F)c1,TGI,[20],> 4.09 µM
CCCCCCCOc1c(OC)cc(C2CC(=O)Nc3c2c(C)nn3-c2nc3ccccc3[nH]2)cc1OC (stereo not drawn),GI50,[20],2.45 µM
same,TGI,[20],7.12 µM
CCN(CC)c1ccc(C(=N)c2ccc(N(C)C)cc2)cc1,GI50,[20],0.113 µM
same,TGI,[20],2.25 µM
O=C(N/N=C/c1cc([N+](=O)[O-])ccc1O)c1cccc2ccccc12,GI50,[20],1.52 µM
same,TGI,[20],4.74 µM
CCN(CC)c1ccc2cc(NC(=O)OCCNC(=O)CCNC(=O)[C@H](CC(C)C)NC(=O)C(C)(C)NC(=O)C(C)(C)NC(=O)[C@H](CC(C)C)NC(=O)CCNC(=O)C(C)(C)NC(=O)[C@H](CC(C)C)NC(=O)CCNC(=O)[C@@](C)(CC)NC(=O)[C@H](C)NC(=O)CCNC(=O)C(C)(C)NC(=O)[C@H](C)NC(=O)[C@@H]3CCCN3C(=O)[C@@](C)(CC)NC(=O)[C@H](Cc3ccccc3)NC(=O)C3CCCN3C(=O)C(C)(C)NC(=O)C3CCCN3C(=O)C(C)(C)NC(C)=O)c(=O)oc2c1 (stereo partly drawn) (Ac-[Aib][ξP][Aib][ξP]F[dIva]PA[Aib][βAla]A[dIva][βAla]L[Aib][βAla]L[Aib][Aib]L[βAla][X14]-X15),GI50,[20],0.00277 µM
same,TGI,[20],0.00774 µM
O=C(OCCBr)c1ccc(Cl)c([N+](=O)[O-])c1,GI50,[20],1.9 µM
same,TGI,[20],4.09 µM
